# Measured values taken from ChEMBL document CHEMBL3875142, “Quinolino[3,4-b]quinoxalines and pyridazino[4,3-c]quinoline derivatives: Synthesis, inhibition of topoisomerase IIα, G-quadruplex binding and cytotoxic properties” (Eur J Med Chem, 2016).
# The source made the active and inactive calls. The rule behind the calls is not given here.
# How the values were obtained:
# [1] = Inhibition of Escherichia coli DNA topoisomerase 4 decatenation activity using kinetoplast DNA as substrate after 60 mins by agarose gel electrophoresis
# [2] = biological target: DNA topoisomerase 2-alpha (Homo sapiens, UniProt P11388); experiment: Inhibition of human DNA topoisomerase 2alpha-mediated decatenation of kinetoplast DNA after 60 mins by agarose gel electrophoresis
# [3] = Binding affinity to 5'-dabcyl/3'-fluorescein labeled duplex DNA (unknown origin) assessed as change in melting temperature at 10 uM by fluorescence assay
# [4] = organism: Homo sapiens; experiment: Binding affinity to 5'-dabcyl/3'-fluorescein labeled human telomeric sequence G-quadruplex DNA assessed as change in melting temperature at 10 uM by fluorescence assay
# [5] = Binding affinity to 5'-dabcyl/3'-fluorescein labeled cKit G-quadruplex DNA (unknown origin) assessed as change in melting temperature at 10 uM by fluorescence assay
# [6] = Binding affinity to 5'-dabcyl/3'-fluorescein labeled pu27 G-quadruplex DNA (unknown origin) assessed as change in melting temperature at 10 uM by fluorescence assay
# [7] = Cytotoxicity against human HeLa cells after 72 hrs by MTT assay; assay type: functional, cell-based
# [8] = Cytotoxicity against human MCF7 cells after 72 hrs by MTT assay; assay type: functional, cell-based; details: MCF7, 72 h
# [9] = Inhibition of thiazole orange binding to human telomeric sequence G-quadruplex DNA by fluorescence assay
# [10] = Inhibition of thiazole orange binding to pu27 G-quadruplex DNA (unknown origin) by fluorescence assay
# [11] = Inhibition of thiazole orange binding to cKit G-quadruplex DNA (unknown origin) by fluorescence assay
# [12] = Inhibition of thiazole orange binding to duplex DNA (unknown origin) by fluorescence assay
# [13] = test system: Escherichia coli; experiment: Induction of Escherichia coli pBR322 DNA unwinding at 0.1 to 10 uM after 1 hr by agarose gel electrophoresis
# DNA topoisomerase 2-alpha, sequence (P11388 whole entry): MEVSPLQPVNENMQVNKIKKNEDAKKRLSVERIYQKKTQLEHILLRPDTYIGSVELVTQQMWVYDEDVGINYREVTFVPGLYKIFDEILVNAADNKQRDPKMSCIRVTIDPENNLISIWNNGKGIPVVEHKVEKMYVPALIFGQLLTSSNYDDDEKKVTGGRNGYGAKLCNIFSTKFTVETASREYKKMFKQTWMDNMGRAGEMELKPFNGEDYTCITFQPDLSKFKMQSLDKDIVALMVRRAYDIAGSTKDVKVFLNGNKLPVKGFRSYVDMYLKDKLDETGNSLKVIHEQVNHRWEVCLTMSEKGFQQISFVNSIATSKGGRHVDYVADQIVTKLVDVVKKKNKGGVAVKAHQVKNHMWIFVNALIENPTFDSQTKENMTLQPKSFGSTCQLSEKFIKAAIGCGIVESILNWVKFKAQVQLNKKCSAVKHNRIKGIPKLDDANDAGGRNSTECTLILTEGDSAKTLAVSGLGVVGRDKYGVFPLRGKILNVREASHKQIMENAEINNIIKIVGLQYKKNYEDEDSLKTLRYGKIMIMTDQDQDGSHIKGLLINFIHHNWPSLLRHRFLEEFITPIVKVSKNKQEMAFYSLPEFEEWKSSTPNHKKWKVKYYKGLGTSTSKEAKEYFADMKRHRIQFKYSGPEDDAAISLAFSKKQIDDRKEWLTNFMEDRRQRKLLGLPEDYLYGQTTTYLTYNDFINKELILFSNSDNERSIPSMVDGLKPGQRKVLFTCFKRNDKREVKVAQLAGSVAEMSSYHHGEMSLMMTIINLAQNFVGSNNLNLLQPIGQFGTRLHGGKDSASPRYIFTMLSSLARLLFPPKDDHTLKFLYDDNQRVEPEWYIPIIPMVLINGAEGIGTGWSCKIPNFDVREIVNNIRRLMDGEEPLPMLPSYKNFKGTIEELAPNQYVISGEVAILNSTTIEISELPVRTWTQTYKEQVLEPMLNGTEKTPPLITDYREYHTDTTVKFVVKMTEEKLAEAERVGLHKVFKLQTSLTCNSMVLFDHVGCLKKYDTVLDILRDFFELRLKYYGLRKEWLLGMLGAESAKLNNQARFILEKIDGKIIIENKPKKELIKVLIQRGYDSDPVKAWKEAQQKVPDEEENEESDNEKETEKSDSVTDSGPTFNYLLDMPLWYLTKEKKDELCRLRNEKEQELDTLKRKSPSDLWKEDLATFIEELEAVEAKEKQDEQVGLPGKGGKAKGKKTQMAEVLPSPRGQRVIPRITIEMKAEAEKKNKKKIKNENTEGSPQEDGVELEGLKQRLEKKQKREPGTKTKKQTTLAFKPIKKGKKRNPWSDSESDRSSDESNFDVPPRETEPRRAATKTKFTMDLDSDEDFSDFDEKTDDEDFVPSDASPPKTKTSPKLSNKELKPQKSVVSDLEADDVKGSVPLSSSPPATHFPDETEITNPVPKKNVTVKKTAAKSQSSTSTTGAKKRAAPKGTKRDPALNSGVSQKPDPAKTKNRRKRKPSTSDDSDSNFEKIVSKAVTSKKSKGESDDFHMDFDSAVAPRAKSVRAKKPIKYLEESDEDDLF
SMILES,IC50 [1] [µM],IC50 [2] [µM],ΔTm [3] [°C],ΔTm [4] [°C],ΔTm [5] [°C],ΔTm [6] [°C],IC50 [7] [µM],IC50 [8] [µM],EC50 [9] [µM],EC50 [10] [µM],EC50 [11] [µM],EC50 [12] [µM],Activity [13]
CO[C@@H]1[C@@H](OC(N)=O)[C@@H](O)[C@H](Oc2ccc3c(O)c(NC(=O)c4ccc(O)c(CC=C(C)C)c4)c(=O)oc3c2C)OC1(C)C [NOVOBIOCIN],63.4,–,–,–,–,–,–,–,–,–,–,–,–
CN(CCCCCNc1nc2ccccc2c2nc3ccccc3nc12)Cc1ccccc1,> 100,> 100,0,3.1,1.5,5.9,> 100,> 100,–,–,–,–,–
Cc1cc2c(=O)n(CCN(C)C)c3ccccc3c2nn1,–,> 100,0.2,1.2,2.7,0.6,40.9,–,–,–,–,–,–
CN(C)CCSc1nc2ccccc2c2nc3ccccc3nc12,> 100,17.8,4.2,10.6,11.2,8.8,6.03,2.41,–,–,–,–,–
c1ccc2nc3c(nc2c1)c(NCCN1CCCCC1)nc1ccccc13,–,19.4,1.8,0.4,2,1.4,10.3,–,–,–,–,–,–
O=c1[nH]c2ccccc2c2nc3ccccc3nc12,> 100,> 100,0,0,0,0,19.8,32.7,–,–,–,–,–
c1ccc2nc3c(nc2c1)c(NCCN1CCOCC1)nc1ccccc13,> 100,100,0,0,0,0,> 100,> 100,–,–,–,–,–
CCN(CC)CCNc1nc2ccccc2c2nc3ccccc3nc12,–,> 100,1.1,1.1,5.8,3.8,6.87,–,–,–,–,–,–
CCN(CC)CCCNc1nc2ccccc2c2nc3ccccc3nc12,–,13.9,1.5,2,4.7,5.9,6.53,–,–,–,–,–,–
O=C1c2ccccc2C(=O)c2c(NCCNCCO)ccc(NCCNCCO)c21 [AMETANTRONE],–,–,–,–,–,–,0.9,0.51,–,–,–,–,–
CN(C)CCCCNc1nc2ccccc2c2nc3ccccc3nc12,> 100,5.14,4.2,9.8,11.6,9.4,2.32,1.6,4.48,0.57,0.83,1.26,–
Cc1cc2c(=O)n(CCCN(C)C)c3ccccc3c2nn1,–,> 100,0.1,1.7,1.8,2.1,49.1,–,–,–,–,–,–
CN(C)CCCCn1c(=O)c2nc3ccccc3nc2c2ccccc21,–,34.3,0.9,4.8,7.4,6.4,11.1,–,–,–,–,–,–
COc1cccc2c1C(=O)c1c(O)c3c(c(O)c1C2=O)C[C@@](O)(C(=O)CO)C[C@@H]3O[C@H]1C[C@H](N)[C@H](O)[C@H](C)O1 [DOXORUBICIN],–,3,–,–,–,–,–,–,–,–,–,–,Active
CCN(CC)CCn1c(=O)c2nc3ccccc3nc2c2ccccc21,–,87.6,0.4,2.3,4.5,3.5,8.52,–,–,–,–,–,–
CN(C)CCCn1c(=O)c2nc3ccccc3nc2c2ccccc21,> 100,> 100,0.4,4.7,7.8,5.5,2.04,5.99,–,1.32,3.57,10.9,–
CN(C)CCCNc1nc2ccccc2c2nc3ccccc3nc12,> 100,11.3,2.2,6.1,6.9,5.9,5.37,2.96,–,–,–,–,–
CCN(CC)CCOc1nc2ccccc2c2nc3ccccc3nc12,–,> 100,0.1,1,2.5,0.8,25.4,–,–,–,–,–,–
CN(C)CCn1c(=O)c2nc3ccccc3nc2c2ccccc21,–,35.6,0.3,2.7,4.8,4.1,7.18,–,–,–,–,–,–
CN(C)CCCOc1nc2ccccc2c2nc3ccccc3nc12,–,23.8,0.5,1.4,3.8,4.1,6.1,–,–,–,–,–,–
O=c1c2nc3ccccc3nc2c2ccccc2n1CCN1CCOCC1,> 100,> 100,0,0.8,0,0,> 100,> 100,–,–,–,–,–
CN(C)CCNc1nc2ccccc2c2nc3ccccc3nc12,> 100,19.5,4.3,8.2,9.7,4,2.98,2.34,–,–,–,–,–
